Earlier results, collected in patent publication US20070027217A1, “Composition and Method for Preventing Secondary Burn Ischemia” (priority 2005, published 2007).
Entries after “also recorded” stand apart in the source; their conditions may differ.

Columns and labels:
burned hamster model = conditions: intravenous infusion
38% full thickness burn = conditions: burn victim taking ibuprofen for arthritis
burns = conditions: in vivo

| SMILES | start of restoration of blood flow within interspaces (rat comb burn; injected immediately after burn trauma) [h] | vascular occlusion / blood flow within the interspaces (rat comb burn; systemic application or injection) | vasodilation response to burn injury (burned hamster model) | hypermetabolic response during recovery (38% full thickness burn) | vascular occlusion and loss of blood flow in burns (burns) |
| --- | --- | --- | --- | --- | --- |
| CC(C)Cc1ccc(C(C)C(=O)O)cc1 (centres unmarked) [ibuprofen] | 16 | preserves blood flow; also recorded: restores vessel patency and blood flow | reduction in the vasodilation response | failed to show the expected hypermetabolic response |  |
| COc1ccc2c(c1)c(CC(=O)O)c(C)n2C(=O)c1ccc(Cl)cc1 [indomethacin] |  |  |  |  | does not prevent vascular occlusion and loss of blood flow |
